Laboratory results taken from patent US4678781A, “3-substituted-aminomethyl cephalosporin derivatives” (ICI Pharma, priority 1983, dated 1987).
Values after ≈ are worked out from the molar mass of the structure shown.

System: E. coli
Experiment: MIC, agar-dilution technique, standard in vitro test
Type: cell-based
Conditions: Escherichia coli; strain code A8341098; Isosensitest agar; inoculum 10^4 CFU./spot; read-out: minimum inhibitory concentration (MIC)
Description: (§1) The results set out in the following Table are illustrative of the biological activity of the compounds of the present invention. The listed compounds all carry a 1-methyl-4-pyridinioaminomethyl radical at the 3-position of the cephalosporin nucleus and a variety of known substituents at the 7-position. The following results are those obtained on a standard in vitro test system and using Isosensitest agar medium. The antibacterial activity is described in terms of the minimum inhibitory concentration (MIC) determined by agar-dilution technique with an inoculum size of 10^4 CFU./spot.

Point of comparison: CO/N=C(\C(=O)N[C@@H]1C(=O)N2C(C(=O)O)=C(CNc3cc[n+](C)cc3)CS[C@H]12)c1csc(N)n1 [Example 9], MIC 0.032 µg/mL. Against it:
- C[n+]1ccc(NCC2=C(C(=O)[O-])N3C(=O)[C@@H](NC(=O)/C(=N\OC4(C(=O)O)CCC4)c4csc(N)n4)[C@H]3SC2)cc1 [Example 74] — 7.8-fold higher, 0.25 µg/mL (≈ 0.425 µM)
- C=CCO/N=C(\C(=O)N[C@@H]1C(=O)N2C(C(=O)[O-])=C(CNc3cc[n+](C)cc3)CS[C@H]12)c1csc(N)n1 [Example 70] — 7.8-fold higher, 0.25 µg/mL (≈ 0.472 µM)

System: Ent. cloacae
Experiment: as above
Type: cell-based
Conditions: Enterobacter cloacae; strain code A8401054; Isosensitest agar; inoculum 10^4 CFU./spot; read-out: minimum inhibitory concentration (MIC)
Description: as §1

Point of comparison: CO/N=C(\C(=O)N[C@@H]1C(=O)N2C(C(=O)O)=C(CNc3cc[n+](C)cc3)CS[C@H]12)c1csc(N)n1 [Example 9], MIC 0.064 µg/mL. Against it:
- C[n+]1ccc(NCC2=C(C(=O)[O-])N3C(=O)[C@@H](NC(=O)/C(=N\OC4(C(=O)O)CCC4)c4csc(N)n4)[C@H]3SC2)cc1 [Example 74] — 16-fold higher, 1 µg/mL (≈ 1.7 µM)
- C=CCO/N=C(\C(=O)N[C@@H]1C(=O)N2C(C(=O)[O-])=C(CNc3cc[n+](C)cc3)CS[C@H]12)c1csc(N)n1 [Example 70] — 16-fold higher, 1 µg/mL (≈ 1.89 µM)

System: Kleb. aerogenes
Experiment: as above
Type: cell-based
Conditions: Klebsiella aerogenes; strain code A8391027; Isosensitest agar; inoculum 10^4 CFU./spot; read-out: minimum inhibitory concentration (MIC)
Description: as §1

Point of comparison: CO/N=C(\C(=O)N[C@@H]1C(=O)N2C(C(=O)O)=C(CNc3cc[n+](C)cc3)CS[C@H]12)c1csc(N)n1 [Example 9], MIC 0.032 µg/mL. Against it:
- C[n+]1ccc(NCC2=C(C(=O)[O-])N3C(=O)[C@@H](NC(=O)/C(=N\OC4(C(=O)O)CCC4)c4csc(N)n4)[C@H]3SC2)cc1 [Example 74] — 16-fold higher, 0.5 µg/mL (≈ 0.851 µM)
- C=CCO/N=C(\C(=O)N[C@@H]1C(=O)N2C(C(=O)[O-])=C(CNc3cc[n+](C)cc3)CS[C@H]12)c1csc(N)n1 [Example 70] — 4.1-fold higher, 0.13 µg/mL (≈ 0.245 µM)

System: P. aeruginosa
Experiment: as above
Type: cell-based
Conditions: Pseudomonas aeruginosa; strain code A8101028; Isosensitest agar; inoculum 10^4 CFU./spot; read-out: minimum inhibitory concentration (MIC)
Description: as §1

Point of comparison: CO/N=C(\C(=O)N[C@@H]1C(=O)N2C(C(=O)O)=C(CNc3cc[n+](C)cc3)CS[C@H]12)c1csc(N)n1 [Example 9], MIC 16 µg/mL. Against it:
- C[n+]1ccc(NCC2=C(C(=O)[O-])N3C(=O)[C@@H](NC(=O)/C(=N\OC4(C(=O)O)CCC4)c4csc(N)n4)[C@H]3SC2)cc1 [Example 74] — 4-fold lower, 4 µg/mL (≈ 6.81 µM)
- C=CCO/N=C(\C(=O)N[C@@H]1C(=O)N2C(C(=O)[O-])=C(CNc3cc[n+](C)cc3)CS[C@H]12)c1csc(N)n1 [Example 70] — 2-fold higher, 32 µg/mL (≈ 60.4 µM)

System: Prot. mirabilis
Experiment: as above
Type: cell-based
Conditions: Proteus mirabilis; strain code A8432057; Isosensitest agar; inoculum 10^4 CFU./spot; read-out: minimum inhibitory concentration (MIC)
Description: as §1

Point of comparison: C=CCO/N=C(\C(=O)N[C@@H]1C(=O)N2C(C(=O)[O-])=C(CNc3cc[n+](C)cc3)CS[C@H]12)c1csc(N)n1 [Example 70], MIC 0.5 µg/mL (≈ 0.944 µM). Against it:
- CO/N=C(\C(=O)N[C@@H]1C(=O)N2C(C(=O)O)=C(CNc3cc[n+](C)cc3)CS[C@H]12)c1csc(N)n1 [Example 9] — 7.8-fold lower, 0.064 µg/mL
- C[n+]1ccc(NCC2=C(C(=O)[O-])N3C(=O)[C@@H](NC(=O)/C(=N\OC4(C(=O)O)CCC4)c4csc(N)n4)[C@H]3SC2)cc1 [Example 74] — 3.8-fold lower, 0.13 µg/mL (≈ 0.221 µM)

System: Sal. dublin
Experiment: as above
Type: cell-based
Conditions: Salmonella enterica; strain code A8369001; Isosensitest agar; inoculum 10^4 CFU./spot; read-out: minimum inhibitory concentration (MIC)
Description: as §1

Point of comparison: C=CCO/N=C(\C(=O)N[C@@H]1C(=O)N2C(C(=O)[O-])=C(CNc3cc[n+](C)cc3)CS[C@H]12)c1csc(N)n1 [Example 70], MIC 0.5 µg/mL (≈ 0.944 µM). Against it:
- CO/N=C(\C(=O)N[C@@H]1C(=O)N2C(C(=O)O)=C(CNc3cc[n+](C)cc3)CS[C@H]12)c1csc(N)n1 [Example 9] — 2-fold lower, 0.25 µg/mL
- C[n+]1ccc(NCC2=C(C(=O)[O-])N3C(=O)[C@@H](NC(=O)/C(=N\OC4(C(=O)O)CCC4)c4csc(N)n4)[C@H]3SC2)cc1 [Example 74] — 3.8-fold lower, 0.13 µg/mL (≈ 0.221 µM)

System: Serr. marcescens
Experiment: as above
Type: cell-based
Conditions: Serratia marcescens; strain code A8421020; Isosensitest agar; inoculum 10^4 CFU./spot; read-out: minimum inhibitory concentration (MIC)
Description: as §1

Point of comparison: CO/N=C(\C(=O)N[C@@H]1C(=O)N2C(C(=O)O)=C(CNc3cc[n+](C)cc3)CS[C@H]12)c1csc(N)n1 [Example 9], MIC 0.13 µg/mL. Against it:
- C[n+]1ccc(NCC2=C(C(=O)[O-])N3C(=O)[C@@H](NC(=O)/C(=N\OC4(C(=O)O)CCC4)c4csc(N)n4)[C@H]3SC2)cc1 [Example 74] — 7.7-fold higher, 1 µg/mL (≈ 1.7 µM)
- C=CCO/N=C(\C(=O)N[C@@H]1C(=O)N2C(C(=O)[O-])=C(CNc3cc[n+](C)cc3)CS[C@H]12)c1csc(N)n1 [Example 70] — 3.8-fold higher, 0.5 µg/mL (≈ 0.944 µM)

System: Staph. aureus
Experiment: as above
Type: cell-based
Conditions: Staphylococcus aureus; strain code A8601052; Isosensitest agar; inoculum 10^4 CFU./spot; read-out: minimum inhibitory concentration (MIC)
Description: as §1

Point of comparison: CO/N=C(\C(=O)N[C@@H]1C(=O)N2C(C(=O)O)=C(CNc3cc[n+](C)cc3)CS[C@H]12)c1csc(N)n1 [Example 9], MIC 1 µg/mL. Against it:
- C[n+]1ccc(NCC2=C(C(=O)[O-])N3C(=O)[C@@H](NC(=O)/C(=N\OC4(C(=O)O)CCC4)c4csc(N)n4)[C@H]3SC2)cc1 [Example 74] — 8-fold higher, 8 µg/mL (≈ 13.6 µM)
- C=CCO/N=C(\C(=O)N[C@@H]1C(=O)N2C(C(=O)[O-])=C(CNc3cc[n+](C)cc3)CS[C@H]12)c1csc(N)n1 [Example 70] — the same, 1 µg/mL (≈ 1.89 µM)

System: Strep. pyogenes
Experiment: as above
Type: cell-based
Conditions: Streptococcus pyogenes; strain code A8681018; Isosensitest agar; inoculum 10^4 CFU./spot; read-out: minimum inhibitory concentration (MIC)
Description: as §1

Point of comparison: CO/N=C(\C(=O)N[C@@H]1C(=O)N2C(C(=O)O)=C(CNc3cc[n+](C)cc3)CS[C@H]12)c1csc(N)n1 [Example 9], MIC 0.016 µg/mL. Against it:
- C[n+]1ccc(NCC2=C(C(=O)[O-])N3C(=O)[C@@H](NC(=O)/C(=N\OC4(C(=O)O)CCC4)c4csc(N)n4)[C@H]3SC2)cc1 [Example 74] — 16-fold higher, 0.25 µg/mL (≈ 0.425 µM)
- C=CCO/N=C(\C(=O)N[C@@H]1C(=O)N2C(C(=O)[O-])=C(CNc3cc[n+](C)cc3)CS[C@H]12)c1csc(N)n1 [Example 70] — lower, < 0.016 µg/mL

System: not listed separately
Experiment: Toxicity observation in mice after subcutaneous administration
Type: in vivo
Conditions: two single doses over one day, each at least five times the PD50 against Salmonella dublin
Method: A number of compounds were administered to mice at doses in excess of those required to afford protection against bacterial infections. Thus for example the compounds of Examples 23, 70 and 74 were administered subcutaneously to mice in two single doses over one day, each dose being at least five times the minimum effective dose which protected 50% of the mice against infection with Salmonella dublin (PD50).

With C[n+]1ccc(NCC2=C(C(=O)[O-])N3C(=O)[C@@H](NC(=O)/C(=N\OC4(C(=O)O)CCC4)c4csc(N)n4)[C@H]3SC2)cc1 [Example 74] the “overt toxic symptoms or side effects” value was “No overt toxic symptoms or side effects attributable to the administered compounds were noted”.
In the case of C=CCO/N=C(\C(=O)N[C@@H]1C(=O)N2C(C(=O)[O-])=C(CNc3cc[n+](C)cc3)CS[C@H]12)c1csc(N)n1 [Example 70], the “overt toxic symptoms or side effects” value is reported as “No overt toxic symptoms or side effects attributable to the administered compounds were noted”.
